Test results reported in US7211581B2, “Substituted 2-(diaza-bicyclo-alkyl)-pyrimidone derivatives” (Sanofi-Aventis, priority 2003, dated 2007).
Structures can show the parent of a compound that is named as a salt.

What was measured:
[1] = target: GSK3β (Homo sapiens, UniProt P49841); assay: Inhibitory activity against GSK3β (33P-ATP phosphorylation of prephosphorylated GS1 peptide, two protocols); type: biochemical
Experimental: Inhibitory Activity of the Medicament of the Present Invention Against GSK3β Two different protocols can be used. In a first protocol: 7.5 μM of prephosphorylated GS1 peptide and 10 μM ATP (containing 300,000 cpm of ^33P-ATP) were incubated in 25 mM Tris-HCl, pH 7.5, 0.6 mM DTT, 6 mM MgCl2, 0.6 mM EGTA, 0.05 mg/ml BSA buffer for 1 hour at room temperature in the presence of GSK3beta (total reaction volume: 100 microliters). In a second protocol: 4.1 μM of prephosphorylated GS 1 peptide and 42 μM ATP (containing 260,000 cpm ^33P-ATP) were incubated in 80 mM Mes-NaOH, pH 6.5, 1 mM Mg acetate, 0.5 mM EGTA, 5 mM 2-mercaptoethanol, 0.02% Tween 20, 10% glycerol buffer for 2 hours at room temperature in the presence of GSK3beta. Inhibitors were solubilised in DMSO (final solvent concentration in the reaction medium, 1%). The reaction was stopped with 100 microliters of a solution made of 25 g polyphosphoric acid (85% P2O5), 126 ml 85% H3PO4, H2O to 500 ml and then diluted to 1:100 before use. An aliquot of the reaction mixture was then transferred to Whatman P81 cation exchange filters and rinsed with the solution described above. Incorporated 33P radioactivity was determined by liquid scintillation spectrometry. The phosphorylated GS-1 peptide had the following sequence: • NH2-[…](P)EDEE-COOH.

Sequence of GSK3β (P49841 whole entry, species assumed): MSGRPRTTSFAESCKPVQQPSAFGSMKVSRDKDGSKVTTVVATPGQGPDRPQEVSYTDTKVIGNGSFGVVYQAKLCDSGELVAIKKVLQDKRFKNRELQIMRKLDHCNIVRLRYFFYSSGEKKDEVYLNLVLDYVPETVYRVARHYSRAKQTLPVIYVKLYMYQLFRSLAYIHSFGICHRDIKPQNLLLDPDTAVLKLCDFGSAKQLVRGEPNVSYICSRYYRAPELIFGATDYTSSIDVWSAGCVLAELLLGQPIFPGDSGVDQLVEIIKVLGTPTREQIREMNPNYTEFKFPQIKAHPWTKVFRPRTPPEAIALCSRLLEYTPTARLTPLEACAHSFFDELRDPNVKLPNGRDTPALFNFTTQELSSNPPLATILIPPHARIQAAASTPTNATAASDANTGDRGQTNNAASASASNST

Row | melting point | IC50 [1] | Compound
1 | 123 to 125 °C | 4 nM | Cc1ccc(N2C[C@@H]3CC2CN3c2nc(-c3ccncc3)cc(=O)n2C)cc1 [4′, (1S)-3-Methyl-6-pyridin-4-yl-2-(5-p-tolyl-2,5-diaza-bicyclo[2.2.1]hept-2-yl)-3H-pyrimidin-4-one]
2 | 142 to 144 °C | 6 nM | Cn1c(N2CC3C[C@H]2CN3C(=O)c2ccc(Br)cc2)nc(-c2ccncn2)cc1=O [Compound 24, (1S)-2-(5-(4-Bromo-benzoyl)-2,5-diaza-bicyclo[2.2.1]hept-2-yl)-1-methyl-1H-[4,4′]bipyrimidinyl-6-one]
3 | 275 to 277 °C |  | Cn1c(N2CC3C[C@H]2CN3)nc(-c2ccncn2)cc1=O (as salt: hydrochloride)
4 | 240 to 242 °C |  | Cn1c(N2CC3C[C@H]2CN3)nc(-c2ccncc2)cc1=O (as salt: hydrochloride)
